Laboratory results reported in ChEMBL document CHEMBL1156746, “New small molecule inhibitors of hepatitis C virus” (Bioorg Med Chem Lett, 2009).

Tests used:
Hepatitis C virus [1] = assay: Antiviral activity against HCV2a J6/JFH1 infected in Huh7-5 cells at early T1 stage assessed as inhibition of core protein dimerization by RT PCR; type: functional, organism-based, Hepacivirus hominis; conditions: subtype 2a J6/JFH1, Huh7.5
Hepatitis C virus [2] = assay: Antiviral activity against HCV2a J6/JFH1 infected in Huh7-5 cells assessed as inhibition of core protein dimerization by RT PCR; type: functional, organism-based, Hepacivirus hominis, subtype 2a J6/JFH1
Hepatitis C virus [3] = assay: Antiviral activity against HCV2a J6/JFH1 infected in Huh7-5 cells at late T2 stage assessed as inhibition of core protein dimerization by RT PCR; type: functional, organism-based, Hepacivirus hominis; conditions: subtype 2a J6/JFH1, Huh7.5
[4] = Cytotoxicity against human Huh7.5 cells; type: cell-based, Huh-7
[5] = Hepatitis C virus, subtype 2a J6/JFH1, Huh7.5, read-out: IC50

| Compound | EC50 (Hepatitis C virus [1]) [µM] | IC50 (Hepatitis C virus [2]; [5]) [µM] | EC50 (Hepatitis C virus [3]) [µM] | CC50 ([4]; Huh7.5 cells) [µM] | IC50 (Hepatitis C virus [2]; huh7-5) | CC50 ([4]; huh-7) [µM] |
| --- | --- | --- | --- | --- | --- | --- |
| CC#CCN1c2ccc(OC)cc2[C@]23CCC(=O)N(CCOC)C2=NC(C(=O)OC)=C(C(=O)OC)C13 (mixture of isomers) | 4.9 | 2 | 0.7 | > 320 | – | – |
| COc1ccc2c(O[C@@H]3C[C@H]4C(=O)N[C@]5(C(=O)O)C[C@H]5/C=C\CCCCC[C@H](NC(=O)OC5CCCC5)C(=O)N4C3)cc(-c3csc(NC(C)C)n3)nc2c1 [CILUPREVIR] | 0.072 | – | 0.071 | – | Not Active | 5.3 |

Further compounds by falling EC50 (Hepatitis C virus [1]), results first:

| EC50 (Hepatitis C virus [1]) [µM] | IC50 (Hepatitis C virus [2]; [5]) [µM] | EC50 (Hepatitis C virus [3]) [µM] | Compound | CC50 ([4]; Huh7.5 cells) [µM] | IC50 (Hepatitis C virus [2]; huh7-5) | CC50 ([4]; huh-7) [µM] |
| --- | --- | --- | --- | --- | --- | --- |
| 14.8 | 9.3 | 22.2 | COC(=O)C1=C(C(=O)OC)C2N(C)c3ccc(OC)cc3[C@@]23C[C@@H](C(=O)OC)N(C(=O)CC(C)C)C3=N1 (mixture of isomers) | > 320 | – | – |
| 3.8 | 2 | 3 | C=CCN1c2ccc(OC)cc2[C@]23CCC(=O)N(Cc4cc(OC)c(OC)c(OC)c4)C2=NC(C(=O)OC)=C(C(=O)OC)C13 (mixture of isomers) | 5.3 | – | – |
| 2.3 | 1.4 | 3.2 | C=CCN1c2ccc(OC)cc2[C@]23CCC(=O)N(Cc4ccccc4)C2=NC(C(=O)OC)=C(C(=O)OC)C13 (mixture of isomers) | 127 | – | – |
